The results in this text go back to patent US20160289186A1, “FLUOROMETHYL-SUBSTITUTED PYRROLE CA[…]” (Grunenthal GmbH, priority 2013, published 2016).

The target in this experiment is T1, Human CaV2.2 channels (Homo sapiens, UniProt Q00975).
T1 construct: expressed in transfected cells; host or cells: HEK293
T1 sequence (Q00975 whole entry): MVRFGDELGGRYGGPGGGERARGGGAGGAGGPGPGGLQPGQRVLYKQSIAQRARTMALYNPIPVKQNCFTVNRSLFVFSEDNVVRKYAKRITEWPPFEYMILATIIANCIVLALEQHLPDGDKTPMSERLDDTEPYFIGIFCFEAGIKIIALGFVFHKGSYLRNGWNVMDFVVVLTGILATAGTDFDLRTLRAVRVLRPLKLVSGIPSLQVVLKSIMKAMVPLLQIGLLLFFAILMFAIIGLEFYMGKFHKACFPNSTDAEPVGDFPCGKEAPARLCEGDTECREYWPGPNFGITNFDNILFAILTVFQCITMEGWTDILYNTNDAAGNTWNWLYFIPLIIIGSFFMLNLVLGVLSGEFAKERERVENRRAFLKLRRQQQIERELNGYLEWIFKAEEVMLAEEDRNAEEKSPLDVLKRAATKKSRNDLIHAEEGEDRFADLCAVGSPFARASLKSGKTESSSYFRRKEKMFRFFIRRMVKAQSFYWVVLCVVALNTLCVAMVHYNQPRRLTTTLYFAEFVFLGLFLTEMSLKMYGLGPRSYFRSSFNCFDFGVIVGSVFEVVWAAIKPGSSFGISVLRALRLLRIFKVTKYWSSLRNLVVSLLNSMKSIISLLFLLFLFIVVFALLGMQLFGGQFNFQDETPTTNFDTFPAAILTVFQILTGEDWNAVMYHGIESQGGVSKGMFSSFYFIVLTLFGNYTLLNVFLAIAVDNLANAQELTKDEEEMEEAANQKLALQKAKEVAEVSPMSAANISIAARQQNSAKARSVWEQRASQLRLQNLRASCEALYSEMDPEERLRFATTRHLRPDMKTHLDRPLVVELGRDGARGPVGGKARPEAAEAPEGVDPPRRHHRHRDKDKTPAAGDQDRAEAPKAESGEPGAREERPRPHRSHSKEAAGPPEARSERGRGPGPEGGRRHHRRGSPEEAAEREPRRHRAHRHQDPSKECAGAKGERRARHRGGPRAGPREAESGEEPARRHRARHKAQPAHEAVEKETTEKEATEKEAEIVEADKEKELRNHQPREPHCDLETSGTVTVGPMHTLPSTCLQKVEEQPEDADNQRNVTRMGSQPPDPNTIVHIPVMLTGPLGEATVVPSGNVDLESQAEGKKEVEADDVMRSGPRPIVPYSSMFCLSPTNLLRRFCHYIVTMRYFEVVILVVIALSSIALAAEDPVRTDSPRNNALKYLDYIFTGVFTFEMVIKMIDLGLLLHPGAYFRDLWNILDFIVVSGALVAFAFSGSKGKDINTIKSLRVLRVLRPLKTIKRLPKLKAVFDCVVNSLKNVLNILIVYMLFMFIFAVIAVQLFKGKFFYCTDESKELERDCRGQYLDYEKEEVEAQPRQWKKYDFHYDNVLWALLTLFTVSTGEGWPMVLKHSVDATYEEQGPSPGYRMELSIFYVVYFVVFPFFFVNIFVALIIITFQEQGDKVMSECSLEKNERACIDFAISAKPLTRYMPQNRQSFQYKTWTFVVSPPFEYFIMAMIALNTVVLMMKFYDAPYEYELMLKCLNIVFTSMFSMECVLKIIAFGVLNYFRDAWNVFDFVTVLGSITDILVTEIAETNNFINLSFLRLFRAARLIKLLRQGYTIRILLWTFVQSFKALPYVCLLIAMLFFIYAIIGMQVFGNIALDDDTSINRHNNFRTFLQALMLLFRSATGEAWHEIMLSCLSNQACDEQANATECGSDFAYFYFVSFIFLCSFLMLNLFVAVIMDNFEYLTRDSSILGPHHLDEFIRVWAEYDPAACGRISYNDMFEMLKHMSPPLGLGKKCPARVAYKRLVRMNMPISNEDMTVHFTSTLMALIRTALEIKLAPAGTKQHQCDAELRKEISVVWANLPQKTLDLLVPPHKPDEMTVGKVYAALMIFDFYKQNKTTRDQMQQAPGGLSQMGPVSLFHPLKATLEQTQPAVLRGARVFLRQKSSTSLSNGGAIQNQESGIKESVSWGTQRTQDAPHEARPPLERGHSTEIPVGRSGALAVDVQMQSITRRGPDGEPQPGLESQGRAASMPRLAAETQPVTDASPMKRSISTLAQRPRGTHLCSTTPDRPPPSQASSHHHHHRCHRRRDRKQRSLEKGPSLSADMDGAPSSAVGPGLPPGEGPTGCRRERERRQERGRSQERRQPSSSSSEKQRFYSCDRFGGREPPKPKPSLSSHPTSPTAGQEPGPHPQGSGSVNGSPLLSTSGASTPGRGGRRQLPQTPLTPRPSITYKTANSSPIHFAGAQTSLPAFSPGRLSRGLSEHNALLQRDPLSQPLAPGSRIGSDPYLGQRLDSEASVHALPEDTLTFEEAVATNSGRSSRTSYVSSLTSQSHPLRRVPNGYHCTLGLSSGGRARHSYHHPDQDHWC
T1 sequence (P54284 whole entry, further chain): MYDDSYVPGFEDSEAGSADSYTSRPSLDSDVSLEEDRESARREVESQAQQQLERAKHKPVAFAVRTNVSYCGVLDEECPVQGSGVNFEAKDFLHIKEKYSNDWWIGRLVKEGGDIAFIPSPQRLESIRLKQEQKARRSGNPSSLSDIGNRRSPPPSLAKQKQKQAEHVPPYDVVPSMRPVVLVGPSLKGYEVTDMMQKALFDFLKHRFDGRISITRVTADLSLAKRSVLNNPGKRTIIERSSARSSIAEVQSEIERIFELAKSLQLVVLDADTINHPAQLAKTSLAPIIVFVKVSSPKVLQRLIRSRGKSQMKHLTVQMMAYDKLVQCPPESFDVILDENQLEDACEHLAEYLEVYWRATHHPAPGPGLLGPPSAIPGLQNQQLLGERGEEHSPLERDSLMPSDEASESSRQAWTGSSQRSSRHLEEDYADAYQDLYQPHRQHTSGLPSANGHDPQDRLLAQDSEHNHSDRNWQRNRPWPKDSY
T1 sequence (P54289 25-1103, further chain): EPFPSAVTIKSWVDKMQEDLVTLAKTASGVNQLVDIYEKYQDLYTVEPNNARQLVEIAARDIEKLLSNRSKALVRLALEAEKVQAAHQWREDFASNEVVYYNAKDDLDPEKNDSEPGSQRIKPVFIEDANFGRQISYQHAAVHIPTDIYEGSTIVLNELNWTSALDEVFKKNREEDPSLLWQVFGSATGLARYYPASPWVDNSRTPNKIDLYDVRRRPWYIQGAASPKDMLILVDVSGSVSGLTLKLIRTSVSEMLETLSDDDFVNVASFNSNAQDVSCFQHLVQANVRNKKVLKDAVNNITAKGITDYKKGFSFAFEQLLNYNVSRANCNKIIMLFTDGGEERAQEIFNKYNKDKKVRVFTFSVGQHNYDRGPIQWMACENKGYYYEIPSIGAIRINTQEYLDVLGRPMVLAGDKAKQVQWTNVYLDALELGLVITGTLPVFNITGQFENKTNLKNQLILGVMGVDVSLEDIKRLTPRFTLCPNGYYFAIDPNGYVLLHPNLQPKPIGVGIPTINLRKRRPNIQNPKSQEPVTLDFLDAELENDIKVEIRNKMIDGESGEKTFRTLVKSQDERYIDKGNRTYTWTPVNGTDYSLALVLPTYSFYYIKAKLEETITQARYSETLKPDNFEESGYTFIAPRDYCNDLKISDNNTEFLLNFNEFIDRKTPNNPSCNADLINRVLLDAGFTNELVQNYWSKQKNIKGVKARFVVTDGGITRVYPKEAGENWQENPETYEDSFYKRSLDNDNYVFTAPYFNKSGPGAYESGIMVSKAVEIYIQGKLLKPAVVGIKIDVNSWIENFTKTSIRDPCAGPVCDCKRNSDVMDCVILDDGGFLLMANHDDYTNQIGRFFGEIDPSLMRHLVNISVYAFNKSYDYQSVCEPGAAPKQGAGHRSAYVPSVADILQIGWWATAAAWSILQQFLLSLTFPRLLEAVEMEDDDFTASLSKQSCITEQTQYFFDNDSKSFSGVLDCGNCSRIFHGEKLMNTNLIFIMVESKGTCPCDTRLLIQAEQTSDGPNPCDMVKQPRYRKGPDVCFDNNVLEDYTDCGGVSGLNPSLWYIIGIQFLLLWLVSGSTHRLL
The experiment in a line: Fluorescent (FLIPR) assay for CaV2.2 channels using potassium depolarization to induce channel opening. The format is cell-based. The following applies: 3 μM compound; 30 mM KCl assay buffer (inactivated channel state); HEK293 cells stably expressing human CaV2.2; read-out: Activity Category: %-Inhib (CaV2.2) @3 μM @30 mM KCl. In outline: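 HEK293 cells stably co-expressing human CaV2.2 with α2δ and β subunits plus Kir2.3, Fluo-4 loaded; compounds preincubated 15 min at 25 °C in 1 mM or 30 mM KCl buffer (inactivated state), pH 7.4. Depolarized by KCl addition; baseline-normalized peak fluorescence (ex 480/em 535 nm) gave inhibition.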
As to `Cc1c(-c2ccc(Cl)cn2)c(C(=O)N(C)C(C)C)n(C(C)C)c1C(F)(F)F` [Example 120, 3-(5-Chloro-pyridin-2-yl)-N,1-diisopropyl-N,4-dimethyl-5-(trifluoromethyl)-1H-pyrrole-2-carboxylic acid amide], the inhibition at 3 µM is 75 to 95%.

On to `Cc1c(-c2ncc(Cl)cn2)c(C(=O)N2CCOC(C)(C)C2)n(C(C)C)c1C(F)(F)F` [Example 121, [3-(5-Chloro-pyrimidin-2-yl)-1-isopropyl-4-methyl-5-(trifluoromethyl)-1H-pyrrol-2-yl]-(2,2-dimethyl-morpholin-4-yl)-methanone], for which the inhibition at 3 µM was 40 to 75%.

On to `Cc1c(-c2ncc(Cl)cn2)c(C(=O)N(C)Cc2ccnn2C)n(C(C)C)c1C(F)(F)F` [Example 122, 3-(5-Chloro-pyrimidin-2-yl)-1-isopropyl-N,4-dimethyl-N-[(2-methyl-2H-pyrazol-3-yl)-methyl]-5-(trifluoromethyl)-1H-pyrrole-2-carboxylic acid amide], for which the inhibition at 3 µM fell in the range of 40 to 75%.

Turning to `Cc1cc(CN(C)C(=O)c2c(-c3ncc(Cl)cn3)c(C)c(C(F)(F)F)n2C(C)C)no1` [Example 123, 3-(5-Chloro-pyrimidin-2-yl)-1-isopropyl-N,4-dimethyl-N-[(5-methyl-isoxazol-3-yl)-methyl]-5-(trifluoromethyl)-1H-pyrrole-2-carboxylic acid amide], the inhibition at 3 µM was in the range of 75 to 95%.

Regarding `Cc1c(-c2ncc(Cl)cn2)c(C(=O)N(C)CC(C)(C)C#N)n(C(C)C)c1C(F)(F)F` [Example 126, 3-(5-Chloro-pyrimidin-2-yl)-N-(2-cyano-2-methyl-propyl)-1-isopropyl-N,4-dimethyl-5-(trifluoromethyl)-1H-pyrrole-2-carboxylic acid amide], the inhibition at 3 µM lay within 40 to 75%.

As for `Cc1c(-c2ncc(Cl)cn2)c(C(=O)N(C)CCS(C)(=O)=O)n(C(C)C)c1C(F)(F)F` [Example 127, 3-(5-Chloro-pyrimidin-2-yl)-1-isopropyl-N,4-dimethyl-N-(2-methylsulfonyl-ethyl)-5-(trifluoromethyl)-1H-pyrrole-2-carboxylic acid amide], the inhibition at 3 µM lay within 30 to 40%.

For `Cc1c(-c2ncc(Cl)cn2)c(C(=O)N(C)C(C)C)n(C(C)C)c1C(F)(F)F` [Example 128, 3-(5-Chloro-pyrimidin-2-yl)-N,1-diisopropyl-N,4-dimethyl-5-(trifluoromethyl)-1H-pyrrole-2-carboxylic acid amide], the inhibition at 3 µM was 40 to 75%.

Regarding `Cc1c(-c2ccc(Cl)cn2)c(C(=O)N2CCN(C(=O)NC(C)(C)C)CC2)n(C(C)C)c1C(F)(F)F` [Example 129, N-tert-Butyl-4-[3-(5-chloro-pyridin-2-yl)-1-isopropyl-4-methyl-5-(trifluoromethyl)-1H-pyrrole-2-carbonyl]-piperazine-1-carboxylic acid amide], the inhibition at 3 µM fell in the range of 75 to 95%.

Consider `Cc1c(-c2ccc(Cl)cn2)c(C(=O)N2CC[S+]([O-])C(C)(C)C2)n(C(C)C)c1C(F)(F)F` (centres unmarked) [Example 130, [3-(5-Chloro-pyridin-2-yl)-1-isopropyl-4-methyl-5-(trifluoromethyl)-1H-pyrrol-2-yl]-(2,2-dimethyl-1-oxo-[1,4]thiazinan-4-yl)-methanone], for which the inhibition at 3 µM was 40 to 75%.

`Cc1c(-c2ccc(Cl)cc2)c(C(=O)N2CCN(C(=O)NC(C)(C)C)CC2)n(C(C)C)c1C(F)(F)F` [Example 131, N-tert-Butyl-4-[3-(4-chlorophenyl)-1-isopropyl-4-methyl-5-(trifluoromethyl)-1H-pyrrole-2-carbonyl]-piperazine-1-carboxylic acid amide]: the inhibition at 3 µM lay in the range of 75 to 95%.

Turning to `Cc1c(-c2ccc(Cl)cc2)c(C(=O)N(C)C(CO)CC(C)C)n(C(C)C)c1C(F)(F)F` (centres unmarked) [Example 132, 3-(4-Chlorophenyl)-N-[1-(hydroxymethyl)-3-methyl-butyl]-1-isopropyl-N,4-dimethyl-5-(trifluoromethyl)-1H-pyrrole-2-carboxylic acid amide], the inhibition at 3 µM fell in the range of 40 to 75%.
